Reference: patent US10702505B2, “Rifaximin” (CIPLA Limited, priority 2006, dated 2020)
Where two headings read alike, the source gives them in different places.

What was measured:
Format in all cases: physicochemical
bulk density = assay: bulk density
tapped density = assay: tapped density
[1] = intrinsic dissolution of amorphous rifaximin against the α Form; settings: 37±0.5° C., 100 rpm
Procedure: Temperature: 37±0.5° C. Rotation speed: 100 rpm Particle size: Amorphous rifaximin—11 microns • α Form of rifaximin—13 microns

[2] = 15 minutes, 1000 ml 0.1M sodium dihydrogen phosphate monohydrate + 4.5 g sodium lauryl sulphate

bulk density (bulk density) | tapped density (tapped density) | intrinsic dissolution profile compared with α Form ([1]; 0.1M sodium dihydrogen phosphate monohydrate + sodium lauryl sulphate) | % Release [1, 2] | % Release ([1]; 30 minutes, same medium) | % Release ([1]; 45 minutes, same medium) | % Release ([1]; 60 minutes, same medium) | % Release ([1]; 120 minutes, same medium) | % Release ([1]; 180 minutes, same medium) | % Release ([1]; 240 minutes, same medium) | % Release ([1]; 360 minutes, same medium) | % Release ([1]; 480 minutes, same medium) | % Release ([1]; 600 minutes, same medium) | % Release ([1]; 720 minutes, same medium) | % Release ([1]; 960 minutes, same medium) | % Release ([1]; 1200 minutes, same medium) | % Release ([1]; 1400 minutes, same medium) | bulk density (bulk density; listed as α Form rifaximin) | tapped density (tapped density; listed as α Form rifaximin) | SMILES
0.3 to 0.4 g/mL | 0.4 to 0.5 g/mL | better dissolution profile than α Form | 1.1% | 1.9% | 2.9% | 3.7% | 8.1% | 12.6% | 16.6% | 24.7% | 32.0% | 39.5% | 46.4% | 60.4% | 72.9% | 83.0% | – | – | CO[C@H]1/C=C/O[C@@]2(C)Oc3c(C)c(O)c4c(O)c(c5c(nc6cc(C)ccn65)c4c3C2=O)NC(=O)/C(C)=C\C=C\[C@H](C)[C@H](O)[C@@H](C)[C@@H](O)[C@@H](C)[C@H](OC(C)=O)[C@@H]1C [Amorphous Rifaximin, (2S,16Z,18E,20S,21S,22R,23R,24R,25S,26 S,27S,28E)-5,6,21,23,25-pentahydroxy-27-methoxy-2,4,11,16,20,22,24,26-octamethyl-2,7-(epoxypentadeca-[1,11,13]trienimino)benzofuro[4,5-e]pyrido[1,2-a]-benzimida-zole-1,15(2H)-dione,25-acetate]
– | – | – | 0.8% | 1.8% | 3.0% | 4.4% | 11.0% | 18.0% | 24.6% | 38.7% | 47.5% | 52.7% | 56.4% | 62.9% | 67.8% | 72.7% | 0.2 to 0.3 g/mL | 0.3 to 0.4 g/mL | CO[C@H]1/C=C/O[C@@]2(C)Oc3c(C)c(O)c4c(O)c(c5c(nc6cc(C)ccn65)c4c3C2=O)NC(=O)/C(C)=C\C=C\[C@H](C)[C@H](O)[C@@H](C)[C@@H](O)[C@@H](C)[C@H](OC(C)=O)[C@@H]1C [α Form of Rifaximin, (2S,16Z,18E,20S,21S,22R,23R,24R,25S,26 S,27S,28E)-5,6,21,23,25-pentahydroxy-27-methoxy-2,4,11,16,20,22,24,26-octamethyl-2,7-(epoxypentadeca-[1,11,13]trienimino)benzofuro[4,5-e]pyrido[1,2-a]-benzimida-zole-1,15(2H)-dione,25-acetate, reference compound]
